Data taken from patent US20060100257A1, “Inhibitors against the activation of ap-1 and nfat” (priority 2002, published 2006).

Columns and labels:
[1] = tested on: NFAT; experiment: Inhibition of NFAT activation (1) (NFAT-LacZ reporter, Jurkat cell); format: cell-based; conditions: A23187 and PMA, 4 hours
Method: Measurement of Inhibition of NFAT Activation (1)
A Jurkat cell transfected with a reporter plasmid (NFAT-LacZ), which was integrated with the NFAT binding sequence on a upstream region of the β-galactosidase gene (LacZ) according to the method described in the “Proceedings of The National Academy of Sciences of The United States of America” 1991, Vol. 88, No. 9, p. 3972-3976, was incubated for 4 hours in the Modified RPMI 1640 medium in the presence of A23187 as a calcium ionophore and PMA (Phorbol 12-myristate 13-acetate), and in the presence or absence of a test compound. Then, intracellular β-galactosidase activity was measured by the method described in the “Proceedings of The National Academy of Sciences of The United States of America” 1991, Vol. 88, No. 9, p. 3972-3976. The inhibitory ratio was obtained as a ratio relative to the value of the β-galactosidase activity in the absence of the test compound.

[2] = tested on: NFAT; experiment: Inhibition of NFAT activation (2) (NFAT Luc reporter, HepG2); format: cell-based, human; conditions: HepG2, TPA (200 nM) and ionomycin (2 μM); for Inhibition Ratio of NFAT Activation(%) Drug Concentration 1 μM: test compound 1 μM; for Inhibition Ratio of NFAT Activation(%) Drug Concentration 1 μg/mL: test compound 1 μg/mL
Method: Measurement of Inhibition of NFAT Activation (2)
Using a transfection reagent (Effectene; QIAGEN), the human hepatoma cell strain HepG2 was transfected with a plasmid (NFAT Luc) which was integrated with an NFAT binding sequence on a upstream region of the firefly luciferase gene (Luc) according to the QIAGEN's protocol, and the cells were incubated for 20 to 24 hours.
After incubation of the cells in the presence or absence of a test compound for 4 hours, TPA (200 nM) and ionomycin (2 μM) were added and the cells were incubated for 20 to 24 hours.
Then, intracellular luciferase activity was measured by using PicaGene LT(TOYO INK MFG Co., Ltd.) and a chemical luminescence measurement apparatus (SPECTRAFluor Plus; TECAN).
The inhibitory ratio was measured as a ratio relative to the value of the luciferase activity in the absence of the test compound.

[3] = tested on: AP-1; experiment: Inhibition of AP-1 activation by TNF α stimulation (pAP-1-Luc reporter, HeLa); format: cell-based, human; conditions: TNF-α (40 ng/ml), 4 hours; for Inhibitory Ratio of AP-1 Activation(%) Drug Concentration 1 μg/mL: test compound 1 μg/mL; for Inhibitory Ratio of AP-1 Activation(%) Drug Concentration 10 μg/mL: test compound 10 μg/mL
Method: Measurement of Inhibition of AP-1 Activation by TNF α Stimulation
Using a transfection reagent (Effectene; QIAGEN), the human uterine cancer cell strain HeLa was transfected with a plasmid (pAP-1-Luc Reporter Plasmid: STRATAGENE) according to the QIAGEN's protocol, which was integrated with an oligonucleotide having seven tandem copies of AP-1 binding sequences (TGACTAA) on a upstream region of firefly luciferase gene (Luc), and the cells were incubated for 6 to 24 hours. Then, the cells were added with TNF-α (40 ng/ml) in the presence or absence of a test compound and incubated for 4 hours, and intracellular luciferase activity was measured by using PicaGene LT(TOYO INK MFG Co., Ltd.) and chemical luminescence measurement apparatus(SPECTRAFluor Plus; TECAN). The inhibitory ratio was obtained as a ratio relative to the value of the luciferase activity in the absence of the test compound.

[4] = tested on: AP-1; experiment: Inhibition of AP-1 activation by forced expression of MEKK-1 (pAP-1-Luc reporter, HepG2); format: cell-based, human; conditions: HepG2, MEKK-1 expression plasmid, 24 hours; for Inhibitory Ratio of AP-1 Activation(%) Drug Concentration 1 μM: test compound 1 μM; for Inhibitory Ratio of AP-1 Activation(%) Drug Concentration 1 μg/mL: test compound 1 μg/mL
From the text: Measurement of Inhibition of AP-1 Activation by Forced Expression of MEKK-1
Using a transfection reagent (Effectene; QIAGEN), the human hepatoma cell strain HepG2 was cotransfected with a plasmid (pAP-1-Luc Reporter Plasmid: STRATAGENE), integrated with an oligonucleotide having seven tandem copies of AP-1 binding sequences (TGACTAA) on an upstream region of the firefly luciferase gene (Luc), and the MEKK-1 expression plasmid (pFCMEKK: STRATAGENE) according to the QIAGEN's protocol, and the cells were incubated for 20 to 24 hours. Then, after the cells were incubated in the presence or absence of a test compound for 24 hours, intracellular luciferase activity was measured by using PicaGene LT(TOYO INK MFG Co., Ltd.) and a chemical luminescence measurement apparatus (SPECTRAFluor Plus; TECAN). The inhibitory ratio was measured as a ratio relative to the value of the luciferase activity in the absence of the test compound.

| SMILES | Inhibition Ratio of NFAT Activation(%) Drug Concentration 1 μg/mL [2] [%] | Inhibitory Ratio of AP-1 Activation(%) Drug Concentration 1 μg/mL [3] [%] | Inhibitory Ratio of AP-1 Activation(%) Drug Concentration 10 μg/mL [3] [%] | Inhibitory Ratio of AP-1 Activation(%) Drug Concentration 1 μg/mL [4] [%] | also measured |
| --- | --- | --- | --- | --- | --- |
| O=C(Nc1cc(C(F)(F)F)cc(C(F)(F)F)c1)c1cc(Cl)ccc1O [Compound No. 50, N-[3,5-Bis(trifluoromethyl)phenyl]-5-chloro-2-hydroxybenzamide] | 99.5 | 42.4 | 89.1 | 99.4 | Inhibitory Ratio of NFAT Activation(%) Drug Concentration 1 μM ([1]; test compound 1 μM): 70%; Inhibitory Ratio of NFAT Activation(%) Drug Concentration 10 μM ([1]; test compound 10 μM): 100%; Inhibition Ratio of NFAT Activation(%) Drug Concentration 1 μM [2]: 94.8%; Inhibitory Ratio of AP-1 Activation(%) Drug Concentration 1 μM [4]: 90.7% |
| O=C(Nc1cc(C(F)(F)F)cc(C(F)(F)F)c1)c1cc(I)ccc1O [Compound No. 52, N-[3,5-bis(trifluoromethyl)phenyl]-2-hydroxy-5-iodobenzamide] |  | 25.4 | 82.4 |  |  |
| CC(C)(C)c1ccc(O)c(C(=O)Nc2cc(C(F)(F)F)cc(C(F)(F)F)c2)c1 [Compound No. 56, N-[3,5-Bis(trifluoromethyl)phenyl]-5-[(1,1-dimethyl)ethyl]-2-hydroxybenzamide] | 99.7 |  |  | 96.3 | Inhibition Ratio of NFAT Activation(%) Drug Concentration 1 μM [2]: 88.9%; Inhibitory Ratio of AP-1 Activation(%) Drug Concentration 1 μM [4]: 82.6% |
| O=C(Nc1cc(C(F)(F)F)cc(C(F)(F)F)c1)c1cc(C#Cc2ccccc2)ccc1O [Compound No. 65, N-[3,5-bis(trifluoromethyl)phenyl]-2-hydroxy-5-(phenylethynyl)benzamide] |  |  | 44.1 |  |  |
| O=C(Nc1cc(C(F)(F)F)cc(C(F)(F)F)c1)c1cc(-c2ccccc2)ccc1O [Compound No. 67] | >99.9 | 18.1 | 60.9 | 94.8 |  |
| O=C(Nc1cc(C(F)(F)F)cc(C(F)(F)F)c1)c1cc(-n2cccc2)ccc1O [Compound No. 71] | >99.9 |  |  | 98.0 |  |
| CC(=O)Oc1ccccc1C(=O)Nc1cc(Cl)cc(Cl)c1 [compound 172, 2-acetoxy-N-(3,5-dichlorophenyl)benzamide] |  |  |  |  | melting point: 218 to 219 °C |
| CC(C)(C)C(=O)c1sc(NC(=O)c2cc(Cl)ccc2O)nc1C(C)(C)C [compound 195, 5-Chloro-N-{4-[(1,1-dimethyl)ethyl]-5-[(2,2-dimethyl)propionyl]thiazol-2-yl}-2-hydroxybenzamide] | 86.7 |  |  | 95.5 | Inhibition Ratio of NFAT Activation(%) Drug Concentration 1 μM [2]: 96.8%; Inhibitory Ratio of AP-1 Activation(%) Drug Concentration 1 μM [4]: 91.2% |
| CC(C)(C)c1nc(NC(=O)c2cc(Br)ccc2O)sc1N1CCOCC1 [compound 199, 5-Bromo-N-{4-[(1,1-dimethyl)ethyl]-5-morpholinothiazol-2-yl}-2-hydroxybenzamide] | >99.9 |  |  | 70.6 |  |
| CC(C)(C)c1nc(NC(=O)c2cc(Br)ccc2O)sc1N1CCN(c2ccccc2)CC1 [compound 201, 5-Bromo-N-{4-[(1,1-dimethyl)ethyl]-5-(4-phenylpiperazin-1-yl)thiazol-2-yl}-2-hydroxybenzamide] | >99.9 |  |  | 79.1 |  |
| CCOC(=O)c1sc(NC(=O)c2cc(Br)ccc2O)nc1-c1ccccc1 [compound 209, 2-(5-bromo-2-hydroxybenzoyl)amino-4-phenylthiazole-5-carboxylic acid ethyl ester] |  | 21.7 | 55.3 |  |  |
| CCOC(=O)c1sc(NC(=O)c2cc(-c3cccs3)ccc2O)nc1-c1ccccc1 [compound 223, 2-[2-Hydroxy-5-(2-thienyl)benzoyl]amino-4-phenylthiazole-5-carboxylic acid ethyl ester] |  |  | 7.0 |  |  |
